{"source": "patent US20230355646A1", "about": "“AUTOPHAGY ACTIVATOR” (Resonac Corporation, priority 2020, published 2023)", "key": {"LC3 gene": {"system": "LC3 gene", "assay": "LC3 gene expression promoting effect in human senescent fibroblasts (quantitative real-time PCR)", "format": "cell-based", "procedure": "(§1) Normal human fibroblasts (NB1RGB, RIKEN BRC Cell Bank) were cultured until confluent in D-MEM medium (manufactured by Sigma-Aldrich) to which 10% fetal bovine serum (manufactured by MP Biomedicals) was added. Thereafter, the cells were treated with 250 μM aqueous hydrogen peroxide for 2 hours, and cultured for 24 hours in D-MEM medium to which fresh 10% fetal bovine serum was added. The treatment with aqueous hydrogen peroxide and the cell culture operation were repeated three times, and the obtained fibroblasts were used as senescent fibroblasts.\n(§2) The prepared senescent fibroblasts were prepared at a seeding density of 10000 cells/cm^2 and cultured for 24 hours in D-MEM medium (manufactured by Sigma-Aldrich) to which 10% fetal bovine serum (manufactured by MP Biomedicals) was added. […]\n(§3) Then, using Nucleospin (registered trademark) RNA kit (manufactured by Takara Bio Inc.), RNA was extracted from senescent fibroblasts or normal human fibroblasts in each example, and cDNA was synthesized from the obtained RNA. Next, using this cDNA as a template, by quantitative real-time PCR, the expression level of each gene was quantified using primers (manufactured by Takara Bio Inc.) specific to the LC3 gene, ATG5 gene, and ATG7 gene, respectively. […]"}, "mTOR gene": {"system": "mTOR gene", "assay": "mTOR gene expression suppression effect in human senescent fibroblasts (quantitative real-time PCR)", "format": "cell-based", "procedure": "as §1, §2\nas §3, with “of mTOR” for “of each”, “to mTOR gene.” for “to the LC3 gene, ATG5 gene, and ATG7 gene, respectively.”"}}}
{"smiles": "COc1ccc([C@@H]2CC(=O)c3c(O)cc(O[C@@H]4O[C@H](CO[C@@H]5O[C@@H](C)[C@H](O)[C@@H](O)[C@H]5O)[C@@H](O)[C@H](O)[C@H]4O)cc3O2)cc1O", "note": "[Comparative Example 2, hesperidin]", "values": [{"measurement": "Relative gene expression level LC3", "setting": "LC3 gene; 10^−2% (V/V) methyl hesperidin or hesperidin, additional ingredient where in the example, 24 hours, Comparative Example 1 (DMSO) = 1.00", "value": "<0"}, {"measurement": "expression level of the LC3 gene (in words)", "setting": "LC3 gene; compared to DMSO only of Comparative Example 1", "value": "more decreased"}, {"measurement": "Relative gene expression level mTOR", "setting": "mTOR gene; 10^−2% (V/V) methyl hesperidin or hesperidin, additional ingredient where in the example, 24 hours, Comparative Example 3 (DMSO) = 1.00", "value": 1.16}, {"measurement": "expression level of mTOR gene (in words)", "setting": "mTOR gene; compared to DMSO only of Comparative Example 3", "value": "almost the same"}]}
